The record followed here is patent US7851654B2, “Chalcone derivatives, pharmaceutically acceptable salt, method for preparation and uses thereof” (Industry-Academic Cooperation Foundation Gyeongsang …, priority 2006, dated 2010).

What is called pIC50 is the IC50 on a negative log10 scale, so that one unit is a factor of ten.

pIC50: −log10 of the molar value.

The subject of series [1] is B-16 melanoma. The experiment in a line: Melanin synthesis inhibitory activity in B-16 melanoma. Particulars: Mus musculus, B16, DMEM with a-MSH and theophylline, read-out: IC50 melanin synthesis inhibition. It counts as cell-based, mice. The procedure:
To identify the melanin synthesis inhibitory activities of the chalcone derivatives of the present invention, whitening effects were measured using B-16 melanoma. 2 ml of B-16 melanoma, derived from black mice, was added to the respective wells in concentration of 2×10^4 cells/well on a 6 well plate using DMEM with 10% FBS and cultivated under the conditions of 5% CO2 and 37° C. for twenty four hours. Media were removed after the cultivation and the DMEM used was replaced with DMEM having 10% FBS, 0.2 mM a-MSH and 2 mM theophylline. Subsequently, appropriate amounts of the chalcone compounds of Examples 2 to 6, 8, 13, 14, 17 and 18 were diluted with the same media and added thereto, respectively, to be cultivated under the conditions of 5% CO2 and 37° C. until the cells grew above 80%. The media were removed after the cultivation and the resultant compounds were washed with PBS and processed with […] to collect cell pellets. Collected pellets were moved to 1.5 ml of Eppendorf tubes to be centrifuged at […] for ten minutes. Then, the pellets in which supernatants were removed were dried in an incubator of 60° C. for twenty four hours. Subsequently, 1N NaOH was added thereto to dissolve melanins in the cells. Dissolved melanins are diluted with appropriate amounts of PBS to measure absorbance at 490 nm, thus obtaining melanin inhibitory rates via Equation 1 above (T. Mosmann, J. Immunol. Methods, 1983, 65, 55; P. R. Gorden, J. Invest. Dermatol., 1989, 92, 565). As a comparative example, the same experiment was carried out using albutin.

Series [2] concerns the target β-amylase. The experiment in a line: β-amylase inhibitory activity via analysis of reducing sugars. The note with it: 1% starch substrate, DNS reagent, same manner as α-amylase test. It counts as biochemical. The procedure:
(§1) α-amylase, a kind of glycosidase enzymes, was used to identify glycosidase inhibitory activities of the chalcone derivatives of the present invention. Using 1% starch as substrate, α-amylase activities were measured by measuring the amounts in that α-amylases hydrolyzed the substrates after adding DNS (1% dinitrosalicylic acid, 12% potassium sodium tartrate in 0.4 M NaOH), a color reagent (Bioorg. Med. Chem. Lett., 2002, 12, 2335-2339). 1% starch as substrate was dissolved in acetate buffer (0.05 M, pH 4.5) in test tubes. After preprocessing at 37° C. for ten minutes, the resultant solutions were quantified as 100 μl in tubes. α-amylases of 0.25 unit/ml, prepared with the acetate buffer, were quantified as 100 μl. Subsequently, the chalcone derivatives prepared in Examples 2, 5, 6, 8, 9, 10, 11 and 12 in accordance with the present invention were dissolved in 50% DMSO solvent and quantified as 50 μl, respectively. After reacting the samples quantified at 37° C. for twenty minutes, 300 μl of DNS, the color reagent, were added thereto. Next, the resultant solutions were reacted in boiled water for ten minutes and cooled to measure absorbance at 540 nm, thus obtaining amylase inhibitory rates via equation 1 above. Measured IC50 values of the chalcone derivatives prepared in Examples 2, 5, 6, 8, 9, 10, 11 and 12 for α-amylases were depicted in table 3.
β-amylase inhibitory activities were measured in the same manner as Experimental example 2 except for using β-amylases as glycosidase and the IC50 values were depicted in Table 3 above.

Series [3] has as its target α-amylase. The experiment in a line: α-amylase inhibitory activity via analysis of reducing sugars. It counts as biochemical. The note with it: 1% starch substrate, DNS reagent, pH 4.5, 37° C., twenty minutes. As for the experimental part:
as §1

In series [4] the test system is B-16 melanoma. Briefly: Cytotoxicity in B-16 melanoma. It counts as cell-based, mice. Particulars: melanin test not performed because of cytotoxicity.

`OC[C@H]1O[C@@H](Oc2ccc(O)cc2)[C@H](O)[C@@H](O)[C@@H]1O` [Albutin, albutin, reference compound]: the pIC50 in series [1] was 4.04.

Consider `Cc1ccc(S(=O)(=O)Nc2ccc(C(=O)/C=C/c3ccc(O)cc3)cc2)cc1` [Example 2, 4′-(p-toluenesulfonylamino)-4-hydroxychalcone], for which the values for the pIC50 in series [1], in series [2] and in series [3] were 4.83, 3.61 and 4.06, respectively.

Take `O=C(/C=C/c1ccc(O)cc1)c1ccc(NS(=O)(=O)c2ccccc2)cc1` [Example 3, 4′-benzenesulfonylamino-4-hydroxychalcone]: the pIC50 in series [1] was 4.69.

With `O=C(/C=C/c1ccc(O)cc1)c1ccc(NS(=O)(=O)c2ccc([N+](=O)[O-])cc2)cc1` [Example 4, 4′-(p-nitrobenzenesulfonylamino)-4-hydroxychalcone], the “cytotoxicity of the compounds” value in series [4] was “ND^a (ND denotes the cases where the experiments on the melanin synthesis inhibitory activities in B-16 melanoma were not performed since the cytotoxicity of the compounds was shown as more than 50%)”.

On to `O=C(/C=C/c1ccc(O)cc1)c1ccc(NS(=O)(=O)c2ccc(F)cc2)cc1` [Example 5, 4′-(p-fluorobenzenesulfonylamino)-4-hydroxychalcone], for which the pIC50 was 4.63 in series [1] and 3.90 in series [2]. Besides, in series [3], the “IC50 α-amylase” value is recorded as “NI^a (NI denotes the cases where the inhibitory rates were below 20% measured when the concentration of the chalcone derivatives was 200 μM or means that there were no inhibitory activities for α-, or β-amylases)”.

On to `CS(=O)(=O)Nc1ccc(C(=O)/C=C/c2ccc(O)cc2)cc1` [Example 6, 4′-(methanesulfonylamino)-4-hydroxychalcone], for which the pIC50 in series [1] is 4.69; in series [2], 4.19; in series [3], 3.71.

For `Nc1ccc(C(=O)/C=C/c2ccc(O)cc2)cc1` [Example 8, 4′-amino-4-hydroxychalcone], the pIC50 in series [1] was 4.90; in series [3], 3.57. Also, the “IC50 β-amylase” value in series [2] is “NI (NI denotes the cases where the inhibitory rates were below 20% measured when the concentration of the chalcone derivatives was 200 μM or means that there were no inhibitory activities for α-, or β-amylases)”.

`O=C(/C=C/c1ccc(O)c(O)c1)c1ccc(NS(=O)(=O)c2ccccc2)cc1` [Example 9, 4′-benzenesulfonylamino-3,4-dihydroxychalcone] had a negative logarithm of the IC50 (pIC50) in series [2] of 3.69. Besides, in series [3], the “IC50 α-amylase” value is given as “NI (NI denotes the cases where the inhibitory rates were below 20% measured when the concentration of the chalcone derivatives was 200 μM or means that there were no inhibitory activities for α-, or β-amylases)”.

Regarding `O=C(/C=C/c1ccc(O)c(O)c1)c1ccc(NS(=O)(=O)c2ccc([N+](=O)[O-])cc2)cc1` [Example 10, 4′-(p-nitrobenzenesulfonylamino)-3,4-dihydroxychalcone], the figures for the pIC50 in series [2] and in series [3] were 3.70 and 4.43, respectively.

Consider `O=C(/C=C/c1ccc(O)c(O)c1)c1ccc(NS(=O)(=O)c2ccc(F)cc2)cc1` [Example 11, 4′-(p-fluorobenzenesulfonylamino)-3,4-dihydroxychalcone], for which the “IC50 β-amylase” value in series [2] is given as “NI (NI denotes the cases where the inhibitory rates were below 20% measured when the concentration of the chalcone derivatives was 200 μM or means that there were no inhibitory activities for α-, or β-amylases)”. The “IC50 α-amylase” value in series [3] is “NI (NI denotes the cases where the inhibitory rates were below 20% measured when the concentration of the chalcone derivatives was 200 μM or means that there were no inhibitory activities for α-, or β-amylases)”.

Take `CS(=O)(=O)Nc1ccc(C(=O)/C=C/c2ccc(O)c(O)c2)cc1` [Example 12, 4′-(methanesulfonylamino)-3,4-dihydroxychalcone]: the pIC50 was 4.61 in series [2] and 4.77 in series [3].

With `Nc1cccc(C(=O)/C=C/c2ccc(O)cc2)c1` [Example 13, 3′-amino-4-hydroxychalcone], in series [4], the “cytotoxicity of the compounds” value is “ND (ND denotes the cases where the experiments on the melanin synthesis inhibitory activities in B-16 melanoma were not performed since the cytotoxicity of the compounds was shown as more than 50%)”.

On to `Cc1ccc(S(=O)(=O)Nc2cccc(C(=O)/C=C/c3ccc(O)cc3)c2)cc1` [Example 14, 3′-(p-toluenesulfonylamino)-4-hydroxychalcone], for which the negative-log IC50 (pIC50) in series [1] is 4.59.

Take `O=C(/C=C/c1ccc(O)cc1)c1ccccc1` [Example 17, 4-hydroxychalcone]: the “cytotoxicity of the compounds” value in series [4] is “ND (ND denotes the cases where the experiments on the melanin synthesis inhibitory activities in B-16 melanoma were not performed since the cytotoxicity of the compounds was shown as more than 50%)”.

Consider `O=C(/C=C/c1ccc(O)cc1)c1ccc(O)cc1` [Example 18, 4′,4-dihydroxychalcone], for which, in series [4], the “cytotoxicity of the compounds” value is on record as “ND (ND denotes the cases where the experiments on the melanin synthesis inhibitory activities in B-16 melanoma were not performed since the cytotoxicity of the compounds was shown as more than 50%)”.
